Experimental data from patent US20260013501A1, “HERBICIDAL DERIVATIVES” (SYNGENTA CROP PROTECTION AG, priority 2022, published 2026).

Columns and labels:
Type in all cases: in vivo
[1] = tested on: Ipomoea hederacea (IPOHE); test: Pre-emergence Test (Table B1), IPOHE; conditions: evaluated after 13 days
Zea mays (ZEAMX) [2] = test: Pre-emergence Test (Table B1), ZEAMX; conditions: evaluated after 13 days
[3] = tested on: Echinochloa crus-galli (ECHCG); test: Pre-emergence Test (Table B1), ECHCG; conditions: evaluated after 13 days
[4] = tested on: Amaranthus retoflexus (AMARE); test: Post-emergence Test (Table B2), AMARE; design: key: five-point scale: 5=81-100%, 4=61-80%, 3=41-60%, 2=21-40%, 1=0-20% damage; conditions: rate 1000 g/Ha, evaluated after 13 days
Description: (§1) Seeds of a variety of test species are sown in standard soil in pots (Ipomoea hederacea (IPOHE), Zea mays (ZEAMX), Echinochloa crus-galli (ECHCG), Amaranthus palmeri (AMAPA), (Amaranthus retoflexus (AMARE), and (Setaria faberi (SETFA)). After 8 days cultivation under controlled conditions in a glasshouse (at 24° C./16° C., day/night; 14 hours light; 65% humidity), the plants are sprayed with an aqueous spray solution derived from the formulation of the technical active ingredient in acetone/water (50:50) solution containing 0.5% Tween 20 (polyoxyethelyene sorbitan monolaurate, CAS RN 9005-64-5). Rate of application is shown in g/ha in the tables below. The test plants are then grown in a glasshouse under controlled conditions in a glasshouse (at 24° C./16° C., day/night; 14 hours light; 65% humidity) and watered twice daily. After 13 days the test is evaluated for the percentage damage caused to the plant. The biological activities are shown in the following table on a five-point scale (5=81-100%; 4=61-80%; 3=41-60%; 2=21-40%; 1=0-20%; -=not tested).

[5] = tested on: Amaranthus palmeri (AMAPA); test: Pre-emergence Test (Table B1), AMAPA; conditions: evaluated after 13 days
[6] = tested on: Amaranthus retoflexus (AMARE); test: Pre-emergence Test (Table B1), AMARE; conditions: evaluated after 13 days
Zea mays (ZEAMX) [7] = test: Post-emergence Test (Table B2), ZEAMX; design: key: 5-point damage scale: 5=81-100%, 4=61-80%, 3=41-60%, 2=21-40%, 1=0-20%; conditions: evaluated after 13 days
Description: as §1

[8] = tested on: Echinochloa crus-galli (ECHCG); test: Post-emergence Test (Table B2), ECHCG; design: key: 5-point damage scale: 5=81-100%, 4=61-80%, 3=41-60%, 2=21-40%, 1=0-20%; conditions: evaluated after 13 days
Description: as §1

[9] = tested on: Amaranthus palmeri (AMAPA); test: Post-emergence Test (Table B2), AMAPA; design: key: five-point scale: 5=81-100%, 4=61-80%, 3=41-60%, 2=21-40%, 1=0-20% damage; conditions: rate 250 g/Ha, evaluated after 13 days
Description: as §1

CCn1c(Cc2ccccc2)cc(=O)c(C(=O)O)c1-c1ccc(Cl)c(Cl)c1 [Compound 3, 6-benzyl-2-(3,4-dichlorophenyl)-1-ethyl-4-oxo-pyridine-3-carboxylic acid]
0: Pre-emergence Test, percentage damage caused to the plant (five-point scale), IPOHE ([1]; Rate 1000 g/Ha) | Pre-emergence Test, percentage damage caused to the plant (five-point scale), ZEAMX (Zea mays (ZEAMX) [2]; Rate 1000 g/Ha) | Pre-emergence Test, percentage damage caused to the plant (five-point scale), ECHCG ([3]; Rate 1000 g/Ha) | percentage damage caused to the plant, AMARE [4]

CCn1c(Cc2ccc(C(F)(F)F)cc2)cc(=O)c(C(=O)O)c1-c1ccc(Cl)c(Cl)c1 [Compound 6, 2-(3,4-dichlorophenyl)-1-ethyl-4-oxo-6-[[4-(trifluoromethyl)phenyl]methyl]pyridine-3-carboxylic acid]
0: Pre-emergence Test, percentage damage caused to the plant (five-point scale), IPOHE ([1]; Rate 1000 g/Ha) | Pre-emergence Test, percentage damage caused to the plant (five-point scale), ZEAMX (Zea mays (ZEAMX) [2]; Rate 1000 g/Ha) | Pre-emergence Test, percentage damage caused to the plant (five-point scale), ECHCG ([3]; Rate 1000 g/Ha)

CCn1c(Cc2nccc(OC)n2)cc(=O)c(C(=O)O)c1-c1ccc(Cl)c(Cl)c1 [Compound 20, 2-(3,4-dichlorophenyl)-1-ethyl-6-[(4-methoxypyrimidin-2-yl)methyl]-4-oxo-pyridine-3-carboxylic acid]
0: Pre-emergence Test, percentage damage caused to the plant (five-point scale), ZEAMX (Zea mays (ZEAMX) [2]; Rate 250 g/Ha) | Pre-emergence Test, percentage damage caused to the plant (five-point scale), ECHCG ([3]; Rate 250 g/Ha) | Pre-emergence Test, percentage damage caused to the plant (five-point scale), AMAPA ([5]; Rate 250 g/Ha) | Pre-emergence Test, percentage damage caused to the plant (five-point scale), AMARE ([6]; Rate 250 g/Ha)

CCn1c(Cc2ncccn2)cc(=O)c(C(=O)O)c1-c1ccc(Cl)c(Cl)c1 [Compound 22, 2-(3,4-dichlorophenyl)-1-ethyl-4-oxo-6-(pyrimidin-2-ylmethyl)pyridine-3-carboxylic acid]
0: Pre-emergence Test, percentage damage caused to the plant (five-point scale), ZEAMX (Zea mays (ZEAMX) [2]; Rate 250 g/Ha) | Pre-emergence Test, percentage damage caused to the plant (five-point scale), ECHCG ([3]; Rate 250 g/Ha) | Pre-emergence Test, percentage damage caused to the plant (five-point scale), AMAPA ([5]; Rate 250 g/Ha) | Pre-emergence Test, percentage damage caused to the plant (five-point scale), AMARE ([6]; Rate 250 g/Ha)

CCn1c(Cc2ccc(OC(F)(F)F)cc2)cc(=O)c(C(=O)O)c1-c1ccc(Cl)c(Cl)c1 [Compound 26, 2-(3,4-dichlorophenyl)-1-ethyl-4-oxo-6-[[4-(trifluoromethoxy)phe-nyl]methyl]pyridine-3-carboxylic acid]
0: percentage damage caused to the plant, ZEAMX (Zea mays (ZEAMX) [7]; rate 1000 g/Ha) | percentage damage caused to the plant, ECHCG ([8]; rate 1000 g/Ha)

CCn1c(Cc2ccc(OC)nc2)cc(=O)c(C(=O)O)c1-c1ccc(Cl)c(Cl)c1 [Compound 40, 2-(3,4-dichlorophenyl)-1-ethyl-6-[(6-methoxy-3-pyridyl)methyl]-4-oxo-pyridine-3-carboxylic acid]
0: Pre-emergence Test, percentage damage caused to the plant (five-point scale), IPOHE ([1]; Rate 250 g/Ha) | Pre-emergence Test, percentage damage caused to the plant (five-point scale), ZEAMX (Zea mays (ZEAMX) [2]; Rate 250 g/Ha) | Pre-emergence Test, percentage damage caused to the plant (five-point scale), ECHCG ([3]; Rate 250 g/Ha) | percentage damage caused to the plant, ECHCG ([8]; rate 250 g/Ha)

CCn1c(Cc2cncc(Cl)n2)cc(=O)c(C(=O)O)c1-c1ccc(Cl)c(Cl)c1 [Compound 43, 6-[(6-chloropyrazin-2-yl)methyl]-2-(3,4-dichlorophenyl)-1-ethyl-4-oxo-pyridine-3-carboxylic acid]
0: Pre-emergence Test, percentage damage caused to the plant (five-point scale), ZEAMX (Zea mays (ZEAMX) [2]; Rate 250 g/Ha) | Pre-emergence Test, percentage damage caused to the plant (five-point scale), AMAPA ([5]; Rate 250 g/Ha) | percentage damage caused to the plant, AMAPA [9]

CCn1c(Cc2cc(=O)[nH]cn2)cc(=O)c(C(=O)O)c1-c1ccc(Cl)c(Cl)c1 [Compound 45, 2-(3,4-dichlorophenyl)-1-ethyl-4-oxo-6-[(6-oxo-1H-pyrimidin-4-yl)methyl]pyridine-3-carboxylic acid]
0: Pre-emergence Test, percentage damage caused to the plant (five-point scale), ZEAMX (Zea mays (ZEAMX) [2]; Rate 250 g/Ha) | Pre-emergence Test, percentage damage caused to the plant (five-point scale), ECHCG ([3]; Rate 250 g/Ha) | Pre-emergence Test, percentage damage caused to the plant (five-point scale), AMAPA ([5]; Rate 250 g/Ha) | Pre-emergence Test, percentage damage caused to the plant (five-point scale), AMARE ([6]; Rate 250 g/Ha) | percentage damage caused to the plant, ECHCG ([8]; rate 250 g/Ha)

CCn1c(Cc2ccc(C(=O)OC)cn2)cc(=O)c(C(=O)O)c1-c1ccc(Cl)c(Cl)c1 [Compound 46, 2-(3,4-dichlorophenyl)-1-ethyl-6-[(5-methoxycarbonyl-2-pyridyl)methyl]-4-oxo-pyridine-3-carboxylic acid]
0: Pre-emergence Test, percentage damage caused to the plant (five-point scale), ZEAMX (Zea mays (ZEAMX) [2]; Rate 250 g/Ha) | percentage damage caused to the plant, ECHCG ([8]; rate 250 g/Ha)

CCn1c(Cc2ccc(S(C)(=O)=O)cc2)cc(=O)c(C(=O)O)c1-c1ccc(Cl)c(Cl)c1 [Compound 72, 2-(3,4-dichlorophenyl)-1-ethyl-6-[(4-methylsulfonylphenyl)methyl]-4-oxo-pyridine-3-carboxylic acid]
0: Pre-emergence Test, percentage damage caused to the plant (five-point scale), IPOHE ([1]; Rate 250 g/Ha) | Pre-emergence Test, percentage damage caused to the plant (five-point scale), ECHCG ([3]; Rate 250 g/Ha) | percentage damage caused to the plant, ZEAMX (Zea mays (ZEAMX) [7]; rate 250 g/Ha) | percentage damage caused to the plant, ECHCG ([8]; rate 250 g/Ha)

CCn1c(Cc2cc(OC)ccc2F)cc(=O)c(C(=O)O)c1-c1ccc(Cl)c(Cl)c1 [Compound 90, 2-(3,4-dichlorophenyl)-1-ethyl-6-[(2-fluoro-5-methoxy-phenyl)methyl]-4-oxo-pyridine-3-carboxylic acid]
0: Pre-emergence Test, percentage damage caused to the plant (five-point scale), ZEAMX (Zea mays (ZEAMX) [2]; Rate 1000 g/Ha) | Pre-emergence Test, percentage damage caused to the plant (five-point scale), AMAPA ([5]; Rate 1000 g/Ha) | Pre-emergence Test, percentage damage caused to the plant (five-point scale), AMARE ([6]; Rate 1000 g/Ha) | percentage damage caused to the plant, ZEAMX (Zea mays (ZEAMX) [7]; rate 1000 g/Ha) | percentage damage caused to the plant, ECHCG ([8]; rate 1000 g/Ha)

CCn1c(Cc2ncc(SC)cn2)cc(=O)c(C(=O)O)c1-c1ccc(Cl)c(Cl)c1 [Compound 99, 2-(3,4-dichlorophenyl)-1-ethyl-6-[(5-methylsulfanylpyrimidin-2-yl)methyl]-4-oxo-pyridine-3-carboxylic acid]
0: Pre-emergence Test, percentage damage caused to the plant (five-point scale), IPOHE ([1]; Rate 250 g/Ha) | Pre-emergence Test, percentage damage caused to the plant (five-point scale), ZEAMX (Zea mays (ZEAMX) [2]; Rate 250 g/Ha) | Pre-emergence Test, percentage damage caused to the plant (five-point scale), ECHCG ([3]; Rate 250 g/Ha)

CCn1c(Cc2ccc(C#N)c(F)n2)cc(=O)c(C(=O)O)c1-c1ccc(Cl)c(Cl)c1 [Compound 112, 6-[(5-cyano-6-fluoro-2-pyridyl)methyl]-2-(3,4-dichlorophenyl)-1-ethyl-4-oxo-pyridine-3-carboxylic acid]
0: Pre-emergence Test, percentage damage caused to the plant (five-point scale), IPOHE ([1]; Rate 62.5 g/Ha) | Pre-emergence Test, percentage damage caused to the plant (five-point scale), ZEAMX (Zea mays (ZEAMX) [2]; Rate 62.5 g/Ha) | Pre-emergence Test, percentage damage caused to the plant (five-point scale), ECHCG ([3]; Rate 62.5 g/Ha) | Pre-emergence Test, percentage damage caused to the plant (five-point scale), AMAPA ([5]; Rate 62.5 g/Ha) | Pre-emergence Test, percentage damage caused to the plant (five-point scale), AMARE ([6]; Rate 62.5 g/Ha)

CCn1c(Cc2cccc(C(C)=O)n2)cc(=O)c(C(=O)O)c1-c1ccc(Cl)c(Cl)c1 [Compound 116, 6-[(6-acetyl-2-pyridyl)methyl]-2-(3,4-dichlorophenyl)-1-ethyl-4-oxo-pyridine-3-carboxylic acid]
0: Pre-emergence Test, percentage damage caused to the plant (five-point scale), IPOHE ([1]; Rate 250 g/Ha) | percentage damage caused to the plant, AMAPA [9]

CCn1c(Cc2nc(C(=O)OC)co2)cc(=O)c(C(=O)O)c1-c1ccc(Cl)c(Cl)c1 [Compound 148, 2-(3,4-dichlorophenyl)-1-ethyl-6-[(4-methoxycarbonyloxazol-2-yl)methyl]-4-oxo-pyridine-3-carboxylic acid]
0: Pre-emergence Test, percentage damage caused to the plant (five-point scale), IPOHE ([1]; Rate 250 g/Ha) | Pre-emergence Test, percentage damage caused to the plant (five-point scale), ZEAMX (Zea mays (ZEAMX) [2]; Rate 250 g/Ha) | Pre-emergence Test, percentage damage caused to the plant (five-point scale), ECHCG ([3]; Rate 250 g/Ha) | percentage damage caused to the plant, ZEAMX (Zea mays (ZEAMX) [7]; rate 250 g/Ha) | percentage damage caused to the plant, AMAPA [9]

CCn1c(Cc2cnc(C3CC3)nc2)cc(=O)c(C(=O)O)c1-c1ccc(Cl)c(Cl)c1 [Compound 151, 6-[(2-cyclopropylpyrimidin-5-yl)methyl]-2-(3,4-dichlorophenyl)-1-ethyl-4-oxo-pyridine-3-carboxylic acid]
0: Pre-emergence Test, percentage damage caused to the plant (five-point scale), IPOHE ([1]; Rate 250 g/Ha) | Pre-emergence Test, percentage damage caused to the plant (five-point scale), ZEAMX (Zea mays (ZEAMX) [2]; Rate 250 g/Ha) | Pre-emergence Test, percentage damage caused to the plant (five-point scale), ECHCG ([3]; Rate 250 g/Ha) | percentage damage caused to the plant, ZEAMX (Zea mays (ZEAMX) [7]; rate 250 g/Ha) | percentage damage caused to the plant, AMAPA [9]
